Measured values from ChEMBL document CHEMBL1143993, “Synthesis and structure-activity relationships of a series of substituted 2-(1H-furo[2,3-g]indazol-1-yl)ethylamine derivatives as 5-HT2C receptor agonists” (Bioorg Med Chem, 2008).

Tests used:
[1] = target: Serotonin 2 receptors; 5-HT2a & 5-HT2c (Homo sapiens) (UniProt P28223+P28335); assay: Selectivity for human 5HT2A to human 5HT2C
[2] = target: T1, 5-hydroxytryptamine receptor 2C (Homo sapiens, UniProt P28335); assay: Displacement of [3H]5-HT from human 5HT2C receptor expressed in CHO cells; format: cell-based
T1 sequence (P28335 whole entry): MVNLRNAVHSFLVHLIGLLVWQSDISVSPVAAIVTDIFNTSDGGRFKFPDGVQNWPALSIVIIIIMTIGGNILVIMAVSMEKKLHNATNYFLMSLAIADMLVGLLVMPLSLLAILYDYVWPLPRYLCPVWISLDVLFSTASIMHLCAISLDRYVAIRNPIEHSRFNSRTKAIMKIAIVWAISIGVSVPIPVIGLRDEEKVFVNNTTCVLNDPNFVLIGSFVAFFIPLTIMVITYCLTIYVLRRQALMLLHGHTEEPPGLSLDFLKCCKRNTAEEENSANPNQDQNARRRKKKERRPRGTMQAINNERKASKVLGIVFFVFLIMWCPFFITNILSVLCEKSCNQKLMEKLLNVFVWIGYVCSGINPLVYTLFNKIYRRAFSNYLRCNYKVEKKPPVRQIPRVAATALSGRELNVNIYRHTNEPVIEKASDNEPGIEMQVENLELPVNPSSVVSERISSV

[3] = target: T2, 5-hydroxytryptamine receptor 2A (Homo sapiens, UniProt P28223); assay: Displacement of [3H]5-HT from human 5HT2A receptor expressed in CHO cells; format: cell-based
T2 sequence (P28223 whole entry): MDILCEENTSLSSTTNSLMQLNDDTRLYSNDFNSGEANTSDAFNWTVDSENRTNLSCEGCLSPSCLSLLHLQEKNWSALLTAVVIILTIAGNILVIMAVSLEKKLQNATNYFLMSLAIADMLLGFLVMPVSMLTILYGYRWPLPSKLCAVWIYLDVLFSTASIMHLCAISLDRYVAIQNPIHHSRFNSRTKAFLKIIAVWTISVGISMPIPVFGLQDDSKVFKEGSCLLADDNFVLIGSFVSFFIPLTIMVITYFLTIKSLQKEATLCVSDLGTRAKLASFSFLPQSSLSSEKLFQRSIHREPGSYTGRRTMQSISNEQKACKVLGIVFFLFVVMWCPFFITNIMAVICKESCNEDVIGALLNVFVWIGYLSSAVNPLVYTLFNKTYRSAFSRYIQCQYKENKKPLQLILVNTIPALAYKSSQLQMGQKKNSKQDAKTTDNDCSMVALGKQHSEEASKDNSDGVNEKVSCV

[4] = test system: Rattus norvegicus; assay: Induction of penile erection in sc dosed rat; format: functional; settings: read-out: MED
[5] = target: T3, 5-hydroxytryptamine receptor 2B (Homo sapiens, UniProt P41595)
T3 sequence (P41595 whole entry): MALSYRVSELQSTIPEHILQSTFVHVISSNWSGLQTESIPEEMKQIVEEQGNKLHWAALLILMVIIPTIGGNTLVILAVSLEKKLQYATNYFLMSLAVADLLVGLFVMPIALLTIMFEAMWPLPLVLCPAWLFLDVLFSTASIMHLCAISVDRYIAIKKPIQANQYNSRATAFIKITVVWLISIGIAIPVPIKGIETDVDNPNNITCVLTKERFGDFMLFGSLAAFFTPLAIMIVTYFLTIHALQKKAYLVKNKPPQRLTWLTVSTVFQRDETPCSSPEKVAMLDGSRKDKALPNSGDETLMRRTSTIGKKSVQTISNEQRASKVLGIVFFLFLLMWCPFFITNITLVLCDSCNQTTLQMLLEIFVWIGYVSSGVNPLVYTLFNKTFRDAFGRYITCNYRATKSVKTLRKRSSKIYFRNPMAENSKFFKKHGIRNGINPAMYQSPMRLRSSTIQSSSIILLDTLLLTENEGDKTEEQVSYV
Description: Agonist activity at human cloned 5HT2B receptor expressed in HEK293-EBNA cells assessed as myo-[3H]inositol hydrolysis

[6] = organism: Homo sapiens; assay: Selectivity ratio of EC50 for human cloned 5HT2B receptor over EC50 for human cloned 5HT2C receptor
[7] = target: T2, 5-hydroxytryptamine receptor 2A; assay: Intrinsic activity at human cloned 5HT2A receptor expressed in CHO cells assessed as maximal stimulation of 10 uM 5HT-induced myo-[3H]inositol hydrolysis; format: functional, cell-based
[8] = target: T1, 5-hydroxytryptamine receptor 2C; assay: Agonist activity at human cloned 5HT2C receptor expressed in CHO cells assessed as myo-[3H]inositol hydrolysis; format: functional, cell-based
[9] = target: T4, 5-hydroxytryptamine receptor 2C (Homo sapiens) (UniProt P28335); assay: Intrinsic activity at human cloned 5HT2C receptor expressed in CHO cells assessed as maximal stimulation of 10 uM 5HT-induced myo-[3H]inositol hydrolysis; format: functional, cell-based
T4 sequence (whole entry): T1 sequence (P28335 whole entry)

[10] = target: T2, 5-hydroxytryptamine receptor 2A; assay: Agonist activity at human cloned 5HT2A receptor expressed in CHO cells assessed as myo-[3H]inositol hydrolysis; format: functional, cell-based
[11] = target: T3, 5-hydroxytryptamine receptor 2B; assay: Intrinsic activity at human cloned 5HT2B receptor expressed in HEK293-EBNA cells assessed as maximal stimulation of 10 uM 5HT-induced myo-[3H]inositol hydrolysis; format: functional, cell-based
[12] = test system: Rattus norvegicus; assay: Induction of penile erection in po dosed rat; format: functional; settings: read-out: MED

Sequence of Serotonin 2 receptors; 5-HT2a & 5-HT2c (Homo sapiens) (P28223 whole entry, looked up, one chain of several): as the sequence (P28223 whole entry) above

`CCc1cc2c(ccc3c(OC)nn(C[C@H](C)N)c32)o1` gave a Ratio Ki [1] of 3, a Ki [2] of 12 nM and a Ki [3] of 38 nM.
`COc1nn(C[C@H](C)N)c2c1ccc1occc12` showed a minimal effective dose [4] of 0.1 mg/kg, a Ratio Ki [1] of 17 and a Ki [2] of 0.51 nM.
Compound `C[C@H](N)Cn1ncc2ccc3ocnc3c21` has a Ratio Ki [1] of 1, a Ki [2] of 59 nM and a Ki [3] of 47 nM.
In the case of `C[C@H](N)Cn1ncc2ccc3sccc3c21`, the Ratio Ki [1] is reported as 5, the Ki [2] is reported as 1.4 nM and the Ki [3] is reported as 6.7 nM.
For `CCCc1nn(C[C@H](C)N)c2c1ccc1occc12`, the Ratio Ki [1] was 3, the Ki [2] was 25 nM and the Ki [3] was 64 nM.
`C[C@H](N)Cn1ncc2ccc(Cl)c(Cl)c21` showed a Ratio Ki [1] of 2, a Ki [2] of 4 nM and a Ki [3] of 9.1 nM.
`COc1ccc2cnn(C[C@H](C)N)c2c1Cl` was tested, and the Ratio Ki [1] was 9, the Ki [2] was 140 nM and the Ki [3] was 1200 nM.
Work on `C[C@H](N)Cn1ccc2cc(F)c(Cl)cc21` yielded an EC50 [5] of 2.4 nM, a minimal effective dose [4] of 0.3 mg/kg and a Ratio Ki [1] of 2. For the same compound, the Ratio EC50 [6] was 0.05, the Emax [7] was 91% and the EC50 [8] was 52 nM. It also gave a Ki [2] of 26 nM, an Emax [9] of 88% and an EC50 [10] of 400 nM. The Ki [3] was 39 nM and the Emax [11] was 130%.
`Cc1cc2c(ccc3cnn(C[C@H](C)N)c32)o1` was tested, and the Ratio Ki [1] was 4, the Ki [2] was 0.2 nM and the Ki [3] was 0.78 nM.
`C[C@H](N)Cn1ncc2cc(F)ccc21` gave a Ratio Ki [1] of 2, a Ki [2] of 43 nM and a Ki [3] of 89 nM.
Work on `COc1ccc2cnn(C[C@H](C)N)c2c1` yielded a Ratio Ki [1] of 2, a Ki [2] of 16 nM and a Ki [3] of 37 nM.
In the case of `C[C@H](N)Cn1ncc2ccc(F)cc21`, the Ratio Ki [1] is reported as 3, the Ki [2] is reported as 32 nM and the Ki [3] is reported as 82 nM.
Work on `C[C@H](N)Cn1ncc2ccc3occc3c21` yielded a Ratio Ki [1] of 4, a Ki [2] of 0.2 nM and a Ki [3] of 0.78 nM.
`CCc1cc2c(ccc3cnn(C[C@H](C)N)c32)o1` was tested, and the EC50 [5] was 3.2 nM, the minimal effective dose [4] was 0.03 mg/kg and the Ratio Ki [1] was 15. The Ratio EC50 [6] was 3.2, the Emax [7] was 97% and the minimal effective dose [12] was 0.3 mg/kg. For the same compound, the EC50 [8] was 1 nM, the Ki [2] was 0.89 nM and the Emax [9] was 76%. For the same compound, the EC50 [10] was 93 nM, the Ki [3] was 13 nM and the Emax [11] was 110%.
For `Cc1nn(C[C@H](C)N)c2c1ccc1occc12`, the Ratio Ki [1] was 1, the Ki [2] was 13 nM and the Ki [3] was 17 nM.
`C[C@H](N)Cn1ncc2cc(Cl)c(Cl)cc21` showed a Ratio Ki [1] of 1, a Ki [2] of 7.5 nM and a Ki [3] of 11 nM.
`CC(C)c1cc2c(ccc3cnn(C[C@H](C)N)c32)o1` showed a Ratio Ki [1] of 4, a Ki [2] of 20 nM and a Ki [3] of 87 nM.
Compound `CCc1cc2c(ccc3c(C)nn(C[C@H](C)N)c32)o1` has a Ratio Ki [1] of 9, a Ki [2] of 5 nM and a Ki [3] of 46 nM.
`CCc1nn(C[C@H](C)N)c2c1ccc1occc12` showed a Ratio Ki [1] of 4, a Ki [2] of 2.5 nM and a Ki [3] of 11 nM.
`CCc1cc2c(ccc3c(CC)nn(C[C@H](C)N)c32)o1` was tested, and the Ratio Ki [1] was 19, the Ki [2] was 2.7 nM and the Ki [3] was 51 nM.
